# Tested on: HCT-116 RAD21-mAC cells
# Experiment: 3D-APA of higher-order Hi-C contacts between cohesin-independent loop anchors
# Assay type: cell-based, human
# Conditions: auxin-treated data, 131 intrachromosomal trios; none in untreated
# From the text: To probe this question, Applicants examined concatemers—that is, Hi-C reads which bring together 3 or more loci, and indicate that the loci in question were simultaneously co-located in a particular cell during the Hi-C experiment. Applicants identified 57 million unique “triples,” which bring together 3 loci; 32 million unique quadruples, and 130 thousand quintuples (FIG. 5B, see Methods). Instead of a 2-dimensional heatmap, concatemers are naturally represented as an n-dimensional matrix, or tensor, showing the collision frequency (i.e. the frequency of simultaneous physical contact) between any set of n loci in the genome (FIG. 5C). Hubs involving n loci manifest in the n-dimensional contact tensor as peaks in collision frequency with respect to the local n-dimensional neighborhood. […]
# Analysis of higher order contacts. […] The Juicer pipeline (Durand, et al, 2016b) separately outputs abnormal chimeric read pairs (i.e. read pairs that map to more than 2 loci). Applicants combined all of the data from untreated RAD21-mAC cells and all our data from treated RAD21-mAC cells (unsynchronized and synchronized/arrested), parsed the chimeric abnormal reads and deduped them (using the same deduping procedure used in Juicer, only applied to three, four or five positions, rather than just two), retaining unique reads that mapped to three or more positions with MAPQ>=10. […]
compound,measurement,value
"O=C(O)Cc1c[nH]c2ccccc12 [auxin, indole-3-acetic acid]",collisions in the center voxel of the 3D APA cube (three cohesin-independent loop anchors),11

# From patent publication US20200255828A1, “METHODS AND COMPOSITIONS FOR ALTERING FUNCTION AND STRUCTURE OF CHROMATIN LOOPS AND/OR DOMAINS” (THE BROAD INSTITUTE, INC., priority 2017, published 2020)
